Literature values, collected in paper PMC11185183 (PNAS Nexus, 2024).

Tested on: GC-B

Question: For CN(C)CCN1CCCC(C(=O)Nc2nc3c(F)cc(F)cc3s2)C1 (stereo not shown) [MCUF-651], which “action on GC-B” value is on record?
Answer: lacked any action
